Test [1] addresses T1, BRAFV600E full-length (amino acids 2-766) (Homo sapiens, UniProt P15056, V600E).
T1 construct: His6-tagged BRAFV600E full-length (amino acids 2-766); His6; made in house; host or cells: baculovirus expression system (insect cells)
Briefly: B-Raf Accelerated MEK ATPase assay (BRAMA). To be noted: categorized; for IC50: Table 1b, read-out: B-Raf pIC50 (converted). The class given is biochemical. The gist of the method:
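Coupled-enzyme readout: ADP generated by MEK-mediated ATP hydrolysis, uncoupled from ERK phosphorylation, is linked to NADH oxidation through pyruvate kinase and lactate dehydrogenase.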

Test [2] deals with Human colon tumor cells (Colo205). In words: Cell growth inhibition assay (CellTiter-Glo), Colo205. In kind it is cell-based. A digest of the protocol: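 Growth is estimated from total cellular ATP measured by CellTiter-Glo luminescence after a 3-day compound exposure at 37 °C. Compounds are tested as 1:3 dilution series in 0.2% final DMSO, with inhibition expressed relative to vehicle-treated wells.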
Background: ATP-based viability assays read luminescence as a measure of living cells.

The test system of test [3] is Human melanoma cancer cells (SK-MEL-28). Briefly: Cell growth inhibition assay (CellTiter-Glo), SK-MEL-28. In kind it is cell-based.
The mark [4] stands for this setting: B-Raf Activity, Table 1a, highest pIC50 for the one or more runs.
Setting [5] is: B-Raf pIC50, Table 1b, later runs, average pIC50 for the one or more runs.
Setting [6] is: COLO 205, 72 h, Table 2a, 3 days incubation, read-out: Activity in Colo205 Tumor Cells.
Setting [7] is: COLO 205, Table 2b, later runs, average for the one or more runs, categorized, read-out: IC50 for Colo205.
Where [8] appears, read: SK-MEL-28, 72 h, Table 3a, 3 days incubation, read-out: Activity in SK-MEL-28 Tumor Cells.
Where [9] appears, read: SK-MEL-28, Table 3b, later runs, average for the one or more runs, categorized, read-out: IC50 for SK-MEL-28.
[10] abbreviates: later runs, average pIC50 for the one or more runs.

SMILES strings stand for the structures. pIC50: −log10 of the molar value. Like-named read-outs stand apart in the source and are kept apart here.

T1 sequence (P15056 2-766 V600E): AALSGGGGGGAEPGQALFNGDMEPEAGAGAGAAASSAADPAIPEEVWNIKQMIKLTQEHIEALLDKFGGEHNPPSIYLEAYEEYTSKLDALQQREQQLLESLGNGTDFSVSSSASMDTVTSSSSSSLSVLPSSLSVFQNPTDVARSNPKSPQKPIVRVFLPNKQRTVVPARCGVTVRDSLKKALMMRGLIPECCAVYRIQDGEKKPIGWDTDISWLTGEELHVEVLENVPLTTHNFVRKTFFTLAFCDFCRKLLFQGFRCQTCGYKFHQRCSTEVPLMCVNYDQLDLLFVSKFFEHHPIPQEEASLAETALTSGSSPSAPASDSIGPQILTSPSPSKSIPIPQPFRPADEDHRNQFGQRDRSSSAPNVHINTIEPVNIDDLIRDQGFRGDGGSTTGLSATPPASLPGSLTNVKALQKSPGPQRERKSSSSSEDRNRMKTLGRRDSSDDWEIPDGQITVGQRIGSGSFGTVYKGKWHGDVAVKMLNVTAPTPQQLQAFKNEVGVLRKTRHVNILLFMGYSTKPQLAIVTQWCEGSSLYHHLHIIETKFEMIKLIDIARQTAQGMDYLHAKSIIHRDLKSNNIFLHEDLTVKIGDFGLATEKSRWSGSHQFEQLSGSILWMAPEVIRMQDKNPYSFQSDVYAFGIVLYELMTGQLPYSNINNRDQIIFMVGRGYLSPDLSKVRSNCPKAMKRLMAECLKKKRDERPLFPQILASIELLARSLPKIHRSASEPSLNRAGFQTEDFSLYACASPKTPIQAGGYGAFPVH

In the case of `CS(=O)(=O)N1CCN(c2nc(-c3cccc(NS(=O)(=O)c4cc(F)ccc4F)c3F)c(-c3ccnc(N)n3)s2)CC1` [Example 99, N-(3-{5-(2-Amino-4-pyrimidinyl)-2-[4-(methylsulfonyl)-1-piperazinyl]-1,3-thiazol-4-yl}-2-fluorophenyl)-2,5-difluorobenzenesulfonamide], the pIC50 in test [1] (setting [4]) was more than 7.00; in test [1] (setting [5]) it was not below 8.50; in test [2] (setting [6]) it was 6.00 to 7.00; in test [2] (setting [7]) it was 6.00 to 7.00; in test [3] (setting [8]), 6.00 to 7.00; in test [3] (setting [9]), 6.00 to 7.00.

As for `CS(=O)(=O)N1CCN(c2nc(-c3cccc(NS(=O)(=O)c4c(F)cccc4F)c3F)c(-c3ccnc(N)n3)s2)CC1` [Example 100, N-(3-{5-(2-Amino-4-pyrimidinyl)-2-[4-(methylsulfonyl)-1-piperazinyl]-1,3-thiazol-4-yl}-2-fluorophenyl)-2,6-difluorobenzenesulfonamide], the pIC50 in test [1] (setting [4]) is more than 7.00; in test [2] (setting [6]) it was 6.00 to 7.00; in test [2] (setting [7]), 6.00 to 7.00; in test [3] (setting [8]) it was 6.00 to 7.00; in test [3] (setting [9]) it was 6.00 to 7.00. Moreover, the IC50 in test [1] (setting [10]) was 3.16 to 31.6 nM.

As for `CS(=O)(=O)N1CCC(c2nc(-c3cccc(NS(=O)(=O)c4cc(F)ccc4F)c3F)c(-c3ccnc(N)n3)s2)CC1` [Example 101, N-(3-{5-(2-Amino-4-pyrimidinyl)-2-[1-(methylsulfonyl)-4-piperidinyl]-1,3-thiazol-4-yl}-2-fluorophenyl)-2,5-difluorobenzenesulfonamide], the pIC50 was more than 7.00 in test [1] (setting [4]); not below 8.50 in test [1] (setting [5]); more than 7.00 in test [2] (setting [6]); more than 7.00 in test [2] (setting [7]); more than 7.00 in test [3] (setting [8]); more than 7.00 in test [3] (setting [9]).

With `Nc1nccc(-c2sc(N3CCS(=O)(=O)CC3)nc2-c2cccc(NS(=O)(=O)c3c(F)cccc3F)c2F)n1` [Example 102, N-{3-[5-(2-Amino-4-pyrimidinyl)-2-(1,1-dioxido-4-thiomorpholinyl)-1,3-thiazol-4-yl]-2-fluorophenyl}-2,6-difluorobenzenesulfonamide], the pIC50 in test [1] (setting [4]) is more than 7.00; in test [2] (setting [6]), 6.00 to 7.00; in test [2] (setting [7]) it was 6.00 to 7.00; in test [3] (setting [8]), 6.00 to 7.00; in test [3] (setting [9]), 6.00 to 7.00. In addition, in test [1] (setting [10]), the IC50 is 3.16 to 31.6 nM.

For `C[C@@H]1CN(c2nc(-c3cccc(NS(=O)(=O)c4cc(F)ccc4F)c3F)c(-c3ccnc(N)n3)s2)C[C@H](C)O1` [Example 103, N-(3-{5-(2-Amino-4-pyrimidinyl)-2-[(2R,6S)-2,6-dimethyl-4-morpholinyl]-1,3-thiazol-4-yl}-2-fluorophenyl)-2,5-difluorobenzenesulfonamide], the pIC50 in test [1] (setting [4]) was more than 7.00; in test [1] (setting [5]) it was not below 8.50; in test [2] (setting [6]) it was more than 7.00; in test [2] (setting [7]), more than 7.00; in test [3] (setting [8]) it was more than 7.00; in test [3] (setting [9]), more than 7.00.

Consider `Nc1nccc(-c2sc(C3CCCCC3)nc2-c2cccc(NS(=O)(=O)c3c(F)cccc3F)c2F)n1` [Example 104, N-{3-[5-(2-Amino-4-pyrimidinyl)-2-cyclohexyl-1,3-thiazol-4-yl]-2-fluorophenyl}-2,6-difluorobenzenesulfonamide], for which the pIC50 in test [1] (setting [4]) is more than 7.00; in test [1] (setting [5]), not below 8.50; in test [2] (setting [6]) it was more than 7.00; in test [2] (setting [7]), more than 7.00; in test [3] (setting [8]) it was more than 7.00; in test [3] (setting [9]), more than 7.00.

With `Nc1nccc(-c2sc(N3CCOCC3)nc2-c2c(F)ccc(NS(=O)(=O)c3cc(F)ccc3F)c2F)n1` [Example 105, N-{3-[5-(2-Amino-4-pyrimidinyl)-2-(4-morpholinyl)-1,3-thiazol-4-yl]-2,4-difluorophenyl}-2,5-difluorobenzenesulfonamide], the pIC50 in test [1] (setting [4]) was more than 7.00; in test [1] (setting [5]), not below 8.50; in test [2] (setting [6]) it was more than 7.00; in test [2] (setting [7]), more than 7.00; in test [3] (setting [8]) it was more than 7.00; in test [3] (setting [9]), more than 7.00.

The record behind these values is patent publication US7994185B2, “Benzene sulfonamide thiazole and oxazole compounds” (Glaxo Smith Kline LLC, priority 2008, dated 2011).
